Laboratory results published in patent publication US20230157319A1, “SUPPLEMENTS AND COMPOSITIONS CONTAINING AMINO ACIDS AND IGF-1 AND METHODS OF USE” (PURETEIN BIOSCIENCE LLC, priority 2020, published 2023).

Tested on: porcine satellite cells
Test: myotube size of differentiated porcine satellite cells, 72 hour treatment
Type: cell-based
Conditions: for myotube size compared to the control treatment: each alone in DM: 5 ng/mL IGF-1, 4 mM L-glutamine, 10 mM L-lysine, 10 μM L-methionine, 72 hour, FIG. 1; for myotube size compared to the control treatment / myotube growth on addition to the combination: 1 mM L-leucine, 1 mM L-arginine; for useful inclusion (minimum amount required to produce the maximal growth response): titrated within the combination with 5 ng/mL active IGF-1, FIGS. 3-5; for myotube growth on addition to the combination: titrated 0.5-3 mM into 5 ng/mL IGF-1, 3 mM L-glutamine, FIGS. 6 and 7

Compound | myotube size compared to the control treatment | useful inclusion (minimum amount required to produce the maximal growth response) [mM] | myotube growth on addition to the combination
NC(=O)CC[C@H](N)C(=O)O [L-glutamine] | more profound growth response of myotubes | 3 | –
CSCC[C@H](N)C(=O)O [L-methionine] | increase the myotube size compared to the control treatment | – | did not provide any increase in myotube growth
NCCCC[C@H](N)C(=O)O [L-lysine] | increase the myotube size compared to the control treatment | – | did not provide any increase in myotube growth
N=C(N)NCCC[C@H](N)C(=O)O [L-arginine] | more profound growth response of myotubes | 1 | –
insulin-like growth factor 1 [IGF-1] | increase the myotube size compared to the control treatment | – | –
CC(C)C[C@H](N)C(=O)O [L-leucine] | more profound growth response of myotubes | 1 | –
